Assay results reported in patent US20240002326A1, “COMPOUNDS AND USE THEREOF IN METHODS OF TREATMENT” (The University of Queensland, priority 2016, published 2024).

Columns and labels:
SOX18-SOX18 homodimer = SOX18-SOX18 homodimer (Homo sapiens (Human), UniProt P35713); experiment: ALPHAScreen SOX18-SOX18 homodimerization; assay type: binding; settings: 5 uM
Experimental: ALPHAScreen was performed as previously described (Sierecki et al., 2014, Sierecki et al., 2013), using the cMyc detection kit and Proxiplate-384 Plus plates (PerkinElmer). The LTE lysate co-expressing the proteins of interest was diluted in buffer A (25 mM HEPES, 50 mM NaCl). For the assay, 12.5 μL (0.4 μg) of Anti-cMyc coated Acceptor Beads in buffer B (25 mM HEPES, 50 mM NaCl, 0.001% NP40, 0.001% casein) were aliquoted into each well. This was followed by the addition of 2 μL of diluted sample, at different concentration, and 2 μL of biotin labeled GFP-Nanotrap in buffer A. The plates were incubated for 45 min at room temperature, then adding 2 μL (0.4 μg) of streptavidin-coated Donor Beads diluted in buffer A, and incubation in the dark for 45 min at room temperature. The ALPHAScreen signal was measured on an Envision Plate Reader (PerkinElmer), using manufacturer's recommended settings (λexc=680/30 nm for 0.18 s, λem=570/100 nm after 37 ms). The resulting bell-shaped curve is an indication of a positive interaction, while a flat line reflects a lack of interaction between the proteins. The measurement of each protein pair was repeated in triplicate.
I is the highest signal level (top of the hook effect curve) and Ineg is the lowest (background) signal level. The signals were normalized to the Iref signal obtained for the strongest interaction. […] Percentage of interaction was calculated as: […]
The ALPHA-Screen Assay was performed as previously described (Sierecki et al. 2014), using the cMyc detection kit and Proxiplate-384 Plus plates (PerkinElmer). A serial dilution of each sample was measured. The LTE lysate co-expressing the proteins of interest was diluted in buffer A (25 mM HEPES, 50 mM NaCl). For the assay, 12.5 μL (0.4 μg) of Anti-cMyc coated Acceptor Beads in buffer B (25 mM HEPES, 50 mM NaCl, 0.001% NP40, casein) were aliquoted into each well. This was followed by the addition of 2 μL of diluted sample and 2 μL of biotin labeled GFP-Nanotrap in buffer A. The plate was incubated for 45 min at RT. Afterward, 2 μL (0.4 μg) of Streptavidin coated Donor Beads diluted in buffer A, were added, followed by incubation in the dark for 45 min at RT. The ALPHA-Screen signal was obtained on an Envision Multilabel Plate Reader (PerkinElmer), using the manufacturer's recommended settings (excitation: 680/30 nm for 0.18 s, emission: 570/100 nm after 37 ms). The resulting bell-shaped curve is an indication of a positive interaction, while a flat line reflects a lack of interaction between the proteins. The measurement of each protein pair was repeated a minimum of three times using separate plates. The Binding Index was calculated as: BI=[(I−I_neg)/(I_ref−I_neg)]×100
For PPI disruption assay, protein pairs expressed in LTE were incubated for 1 h with 100 μM Sm4 or DMSO alone (0.7% DMSO final). 100 μM Sm4 or DMSO was also added to buffer B. PPI disruption was calculated as: (1−I_Sm4/I_DMSO)×100.
For IC50 determination, the assay was identical but a dilution range of Sm4 was used (0.3 to 300 μM). Percentage of interaction was calculated as: I_Sm4/1 DMSO×100. Data from at least 3 independent experiments were fitted in GraphPad Prism (RRID: SCR_007370) version 6.0 using 3-parameter non-linear regression.

SOX18[109] HMG fragment = SOX18[109] HMG fragment (Mus musculus (Mouse), UniProt P43680); experiment: FP DNA-binding competition assay, SOX18[109] HMG fragment; settings: for remaining activity at 50 µM: read-out: FP bound fraction (%) 50 μM; for remaining activity at 200 µM: read-out: FP bound fraction (%) 200 μM
Summary of the method: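 Fluorescence polarization competition using mouse SOX18[109] fragment (residues 69-177, HMG box plus flanks) at 60 nM with 5 nM 5′-FAM 40 bp Prox1 DNA in 10 mM Tris pH 8.0, 100 mM NaCl, 2-3.33% DMSO. Agitated 5 min RT, 10 min 37° C, 30 min RT, then read (ex 485/em 525 nm), triplicates.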

Chain of SOX18[109] HMG fragment (P43680 69-177): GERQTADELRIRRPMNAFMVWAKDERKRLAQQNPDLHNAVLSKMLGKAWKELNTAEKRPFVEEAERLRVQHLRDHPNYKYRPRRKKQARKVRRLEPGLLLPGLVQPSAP
Chain of SOX18-SOX18 homodimer (P35713 whole entry): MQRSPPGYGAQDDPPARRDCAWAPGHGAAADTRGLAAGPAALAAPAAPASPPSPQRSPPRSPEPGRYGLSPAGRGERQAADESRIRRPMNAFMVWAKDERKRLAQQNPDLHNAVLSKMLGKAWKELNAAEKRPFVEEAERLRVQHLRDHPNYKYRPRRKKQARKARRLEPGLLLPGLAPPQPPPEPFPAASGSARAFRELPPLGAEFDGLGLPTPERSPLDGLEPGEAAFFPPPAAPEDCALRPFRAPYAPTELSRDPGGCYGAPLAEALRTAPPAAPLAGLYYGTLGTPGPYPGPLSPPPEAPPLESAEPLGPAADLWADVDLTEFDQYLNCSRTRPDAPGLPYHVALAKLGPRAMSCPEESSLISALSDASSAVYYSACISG

inhibitory activity in respect of SOX18-SOX18 homodimerization (SOX18-SOX18 homodimer)	FP bound fraction (%) 50 μM (SOX18[109] HMG fragment; 50 μM, SOX18/DNA binding) [%]	FP bound fraction (%) 200 μM (SOX18[109] HMG fragment; 200 μM, SOX18/DNA binding) [%]	remaining activity at 50 µM (SOX18[109] HMG fragment; 50 μM, SOX18/DNA binding) [%]	remaining activity at 200 µM (SOX18[109] HMG fragment; 200 μM, SOX18/DNA binding) [%]	SOX18-DNA binding inhibition (FP, words) (SOX18[109] HMG fragment; SAR library, SOX18[109])	Compound
some inhibitory activity	98.5 ± 5.9	128.3 ± 17.2	–	–	–	CCN(CC)C(=O)c1c(O)cc(O)cc1CCc1ccc2ccccc2c1 [Sm26, N,N,diethyl-2,4-hydroxy-6-(2-(naphthalen-2-yl)ethyl)benzamide]
some inhibitory activity	–	–	94.2 ± 1.9	101 ± 1.5	–	COc1cc(C)cc(/C=C/c2ccc3ccccc3c2)c1C(=O)O [Sm34, (E)-2-methoxy-4-methyl-6-(2-(naphthalen-2-yl)vinyl)benzoic acid]
some inhibitory activity	–	–	101 ± 12.1	92.7 ± 14.7	not active	Oc1cc(CCc2ccccc2)cc(O)c1O [Sm40, 5-phenethylbenzene-1,2,3-triol]
